From patent US3970648A, “2-[2-(5-Nitro-2-furyl)vinyl]-4-(anilino)quinazolines” (Diamond Shamrock Corporation, priority 1974, dated 1976)

Columns and labels:
Assay type in all cases: cell-based
Streptococcus group E = assay: Bactericide test, Streptococcus group E (agar streak plate)
Text: (§1) Test formulations were examined for bactericidal and/or bacteriostatic activity against the test organisms shown in Tables A and B. These organisms were chosen as being representative of commercially important pathogens affecting animal agriculture. The antibiotic chlortetracycline was chosen as a positive control, since it has a broad spectrum of activity against a large number of organisms, and its activity can be used for comparative purposes.
(§2) Basic test formulations of the product of Examples I, II, III, and of chlortetracycline were prepared by dissolving 16 mg (0.016 g) in 2.0 ml of stock emulsifier solution (0.25% Triton X-155 in acetone by volume) and making each solution up to 50 ml with deionized water. The concentration of the test compound in the basic formulation was 320 ppm. Lower concentrations of the test compound were obtained by diluting the basic formulation with a 4% solution of the stock emulsifier in deionized water so that each dilution in the series differed only in test compound content.
(§3) Nutrient-tryptic soy agar (NTA) consisting of 2.0% Difco Bactoagar 0.8% nutrient broth (Difco), and 0.5% tryptic soy broth (Difco) was prepared and sterilized by autoclaving. A 2 ml aliquot of each test formulation was added to 8 ml of molten NTA. This mixture was then plated in a sterile polystyrene petri dish (100 × 15 mm). After the agar was set, suspensions of each of the test organisms were simultaneously streaked onto the surface of the agar. The inoculated plates were incubated for 48 hr at 28°C. The inhibition of growth of each organism was rated by visual comparison with the organism developing on non-treated agar. Growth inhibition reported as per cent control was rated in three categories as follows: 0% control, growth equivalent to that on non-treated agar; 50% control, sparse development and separated colonies; 100% control, no visible growth or development of colonies.

Vibrio coli = assay: Bactericide test, Vibrio coli (agar streak plate); conditions: Campylobacter coli
Text: as §1, §2, §3

Escherichia coli = assay: Bactericide test, Escherichia coli (agar streak plate)
Text: as §1, §2, §3
(§4) Test formulations of the product of Example IV were examined for bactericidal and/or bacteriostatic activity against the test organisms shown in Table B using the Bactericide Test described in Example V. The inhibition of organism growth with each diluted test formulation was rated visually by comparison with the organism developing on a non-treated control agar plate. Growth inhibition reported as per cent control was rated in three categories as follows: 0% control, growth equivalent to that on non-treated agar; 50% control is sparse development and separated colonies; and 100% control, development of individual colonies was not apparent.

[1] = tested on: Bordetella bronchiseptica; assay: Bactericide test, Bordetella bronchiseptica (agar streak plate); conditions: Bordetella bronchiseptica
Text: as §1, §2, §3

Streptococcus faecalis = assay: Bactericide test, Streptococcus faecalis (agar streak plate); conditions: Enterococcus faecalis
Text: as §1, §2, §3, §4

Streptococcus agalactiae = assay: Bactericide test, Streptococcus agalactiae (agar streak plate); conditions: Streptococcus agalactiae
Text: as §1, §2, §3

Salmonella gallinarum = assay: Bactericide test, Salmonella gallinarum (agar streak plate); conditions: Salmonella enterica, GALLINARUM
Text: as §1, §2, §3, §4

[2] = tested on: Erysipelothrix rhusiopathiae; assay: Bactericide test, Erysipelothrix rhusiopathiae (agar streak plate); conditions: Erysipelothrix rhusiopathiae
Text: as §1, §2, §3

Salmonella typhimurium = assay: Bactericide test, Salmonella typhimurium (agar streak plate); conditions: Salmonella enterica, TYPHIMURIUM
Text: as §1, §2, §3

Salmonella cholerasuis = assay: Bactericide test, Salmonella cholerasuis (agar streak plate); conditions: Salmonella
Text: as §1, §2, §3, §4

Staphylococcus aureus = assay: Bactericide test, Staphylococcus aureus (agar streak plate); conditions: Staphylococcus aureus
Text: as §1, §2, §3, §4

In the case of CN(C)[C@@H]1C(O)=C(C(N)=O)C(=O)[C@@]2(O)C(O)=C3C(=O)c4c(O)ccc(Cl)c4[C@@](C)(O)[C@H]3C[C@@H]12 [Chlortetracycline, reference compound], the inhibition at 1 ppm (Streptococcus group E) is reported as 0%, the inhibition at 4 ppm (Streptococcus group E) is reported as 0% and the inhibition at 16 ppm (Streptococcus group E) is reported as 100%. It also gave an inhibition at 64 ppm (Streptococcus group E) of 100%, an inhibition at 1 ppm (Vibrio coli; 1 ppm) of 0% and an inhibition at 4 ppm (Vibrio coli; 4 ppm) of 100%. The inhibition at 16 ppm (Vibrio coli; 16 ppm) was 100%, the inhibition at 64 ppm (Vibrio coli; 64 ppm) was 100% and the inhibition at 1 ppm (Escherichia coli) was 0%. It also gave an inhibition at 4 ppm (Escherichia coli) of 0%, an inhibition at 16 ppm (Escherichia coli) of 100% and an inhibition at 64 ppm (Escherichia coli) of 100%. It also gave an inhibition at 1 ppm [1] of 0%, an inhibition at 4 ppm [1] of 0% and an inhibition at 16 ppm [1] of 0%. It also gave an inhibition at 64 ppm [1] of 100%, an inhibition at 1 ppm (Streptococcus faecalis) of 100% and an inhibition at 4 ppm (Streptococcus faecalis) of 100%. The inhibition at 16 ppm (Streptococcus faecalis) was 100%, the inhibition at 64 ppm (Streptococcus faecalis) was 100% and the inhibition at 1 ppm (Streptococcus agalactiae) was 0%. It also gave an inhibition at 4 ppm (Streptococcus agalactiae) of 100%, an inhibition at 16 ppm (Streptococcus agalactiae) of 100% and an inhibition at 64 ppm (Streptococcus agalactiae) of 100%. For the same compound, the inhibition at 1 ppm (Salmonella gallinarum; 1 ppm) was 0%, the inhibition at 4 ppm (Salmonella gallinarum; 4 ppm) was 0% and the inhibition at 16 ppm (Salmonella gallinarum; 16 ppm) was 100%. The inhibition at 64 ppm (Salmonella gallinarum; 64 ppm) was 100%, the inhibition at 1 ppm ([2]; 1 ppm) was 0% and the inhibition at 4 ppm ([2]; 4 ppm) was 10%. For the same compound, the inhibition at 16 ppm ([2]; 16 ppm) was 100%, the inhibition at 64 ppm ([2]; 64 ppm) was 100% and the inhibition at 1 ppm (Salmonella typhimurium) was 0%. For the same compound, the inhibition at 4 ppm (Salmonella typhimurium) was 0%, the inhibition at 16 ppm (Salmonella typhimurium) was 0% and the inhibition at 64 ppm (Salmonella typhimurium) was 0%. The inhibition at 1 ppm (Salmonella cholerasuis) was 0%, the inhibition at 4 ppm (Salmonella cholerasuis) was 0% and the inhibition at 16 ppm (Salmonella cholerasuis) was 100%. The inhibition at 64 ppm (Salmonella cholerasuis) was 100%, the inhibition at 1 ppm (Staphylococcus aureus) was 0% and the inhibition at 4 ppm (Staphylococcus aureus) was 0%. For the same compound, the inhibition at 16 ppm (Staphylococcus aureus) was 100% and the inhibition at 64 ppm (Staphylococcus aureus) was 100%.
